Test results as given in US20240262835A1, “PRMT5 INHIBITING COMPOUNDS AND USES THEREOF” (ANTENGENE DISCOVERY LIMITED, priority 2023, published 2024).

Legend:
[1] = molecular target: PRMT5/MEP50 (Homo sapiens (Human), UniProt O14744); assay: MTase-Glo methyl transferase assay (PRMT5 inhibition); type: biochemical; conditions: 50 nM PRMT5/MEP50, 25 μM SAM, 5 μM Histone H4 peptide (1-21), read-out: IC50 for PRMT5 inhibiting
Description: The PRMT5 inhibitory activity of test compounds was determined using the MTase-Glo™ assay (Promega), which monitors the product (S-adenosyl homocysteine or SAH) of methyltransferase reactions. The PRMT5 MTase-Glo assays were conducted in a 384-well white ProxiPlate (PerkinElmer, catalog no.: 6008280) in a total volume of 12 μL. The PRMT5 enzymatic reaction (in 4 μL) contained 50 nM PRMT5/MEP50 (Reaction Biology Corp, catalog no.: HMT-22-148), 25 μM S-adenosyl methionine (SAM, Promega), 5 μM Histone H4 peptide (1-21) (BPS Bioscience, catalog no.: 52018-2) and five-fold serially diluted compounds in a reaction buffer of 50 mM Tris (pH 8.0), 50 mM NaCl, 0.01% Tween 20, 0.01% BSA, and 1 mM DTT. The test compounds were pre-incubated with PRMT5/MEP50 and Histone H4 peptide for 20 minutes at room temperature before the addition of SAM to initiate the PRMT5 reaction. The reaction was allowed to proceed for 1 hour at 37° C. and was terminated by 2 μL of 3× MTase-Glo™ Reagent (Promega) and 150 μM EPZ015666 (Selleck, catalog no.: 1616391-65-1). After a 30-minute incubation at room temperature, 6 μL of MTase-Glo™ Detection Solution (Promega) was added and the plate was incubated at room temperature for an additional 30 minutes. The light signal corresponding to the amount of SAH produced by the PRMT5 reaction was subsequently measured using an Envision multimode reader (PerkinElmer). IC50 and Ki values were obtained by analyzing dose-response curves using GraphPad Prism.

[2] = test system: HCT116 parental (wild type) cells; assay: HCT116 cell proliferation assay (CTG), parental cells; type: cell-based, human; conditions: Cell Titer-Glo
Description: (§1) Control samples were analyzed in parallel.
(§2) On Day 0, 150 HCT116 parental or HCT116 homozygous MTAP knockout cells were seeded in 96-well plates in McCoy's 5A medium containing 10% fetal bovine serum and pen/strep. And the cells were incubated overnight at 37° C. and 5% CO2.
(§3) On Day 1, cells were treated with 9-point serial dilution of compound, using a top concentration of 50 μM, 1:5 serial dilution steps and, a DMSO-only control. And cells were incubated for 6 days.
(§4) On Day 7, cell viability was measured using a CTG assay Kit (Cell Titer-Glo; Promega, catalog no.: G7573) in accordance with the manufacturer's instructions. Assays plates were read on a EnVision™ Multilabel Reader using the Ultra-Sensitive luminescence model. The data were analyzed by GraphPad Prism 5.0 software, and the dose-effect curve was obtained by fitting the data using nonlinear S-curve regression, from which the IC50 value was calculated.

[3] = test system: HCT116 homozygous MTAP knockout cells; assay: HCT116 cell proliferation assay (CTG), MTAP knockout cells; type: cell-based, human; conditions: Cell Titer-Glo
Description: as §1, §2, §3, §4

[4] = molecular target: hERG potassium ion channel (Homo sapiens (Human), UniProt Q12809); assay: hERG potassium ion channel inhibition assay (automated patch-clamp, CHO-hERG cells); type: cell-based; conditions: Qpatch, highest test concentration 40.00 μM
hERG potassium ion channel, sequence (Q12809 whole entry): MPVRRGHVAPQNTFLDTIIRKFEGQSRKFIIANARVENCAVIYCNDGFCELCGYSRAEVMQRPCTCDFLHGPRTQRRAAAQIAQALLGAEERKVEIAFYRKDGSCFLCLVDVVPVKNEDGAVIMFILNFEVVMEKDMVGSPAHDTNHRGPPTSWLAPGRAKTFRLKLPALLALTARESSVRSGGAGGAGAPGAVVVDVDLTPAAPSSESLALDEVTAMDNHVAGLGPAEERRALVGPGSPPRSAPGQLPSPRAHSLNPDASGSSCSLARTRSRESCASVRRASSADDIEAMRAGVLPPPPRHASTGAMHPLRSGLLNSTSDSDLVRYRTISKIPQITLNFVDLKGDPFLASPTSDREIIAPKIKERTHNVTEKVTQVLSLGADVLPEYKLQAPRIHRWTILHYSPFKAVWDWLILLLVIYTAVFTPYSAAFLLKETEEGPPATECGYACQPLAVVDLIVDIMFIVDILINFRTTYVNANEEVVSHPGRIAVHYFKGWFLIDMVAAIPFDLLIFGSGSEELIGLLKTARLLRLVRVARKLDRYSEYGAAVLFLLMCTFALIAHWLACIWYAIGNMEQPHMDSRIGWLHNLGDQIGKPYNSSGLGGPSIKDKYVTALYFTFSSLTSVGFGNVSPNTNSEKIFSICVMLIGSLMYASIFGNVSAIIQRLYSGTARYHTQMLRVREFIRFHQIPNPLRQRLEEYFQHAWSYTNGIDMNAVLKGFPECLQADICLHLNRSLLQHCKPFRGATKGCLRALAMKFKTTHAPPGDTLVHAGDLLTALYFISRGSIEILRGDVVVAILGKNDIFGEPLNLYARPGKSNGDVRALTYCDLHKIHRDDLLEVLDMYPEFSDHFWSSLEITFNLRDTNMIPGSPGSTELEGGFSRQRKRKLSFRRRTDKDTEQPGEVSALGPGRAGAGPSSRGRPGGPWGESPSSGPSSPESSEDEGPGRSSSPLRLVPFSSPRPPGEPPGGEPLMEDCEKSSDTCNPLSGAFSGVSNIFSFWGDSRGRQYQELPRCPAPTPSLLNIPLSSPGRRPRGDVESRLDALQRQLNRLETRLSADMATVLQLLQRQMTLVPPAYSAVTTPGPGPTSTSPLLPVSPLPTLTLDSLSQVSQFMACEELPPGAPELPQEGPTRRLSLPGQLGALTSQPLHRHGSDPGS
Description: Drug-hERG interaction was measured by automated patch-clamp methods, with cisapride as positive control.
1.1 CHO-hERG cells were cultured in 175 cm^2 culture bottle. After the cell density grew to 60-80%, the culture medium was removed, washed with 7 mL of phosphate buffered saline (PBS), and then digested with 3 mL Detachin.
1.2 After the digestion was complete, 7 mL culture solution was added for neutralization, and then centrifuged, the clear solution was sucked, and 5 mL culture solution was added for re-suspension to ensure the cell density was 2˜5×10^6/mL.
The process of single-cell high-impedance sealing and whole-cell pattern formation was all automatically completed by Qpatch instrument. After obtaining whole-cell recording mode, the cell was pinching at −80 millivolts. Before giving a 5-second +40 millivolt depolarization stimulus, a 50-millisecond pre-voltage of −50 millivolts was given first, and then repolarized to −50 millivolts for 5 seconds. Go back to −80 millivolts. This voltage stimulation was applied every 15 seconds, recorded for 2 minutes, then extracellular fluid was given and recorded for 5 minutes, and then the administration process began. The concentration of test compound was given from the lowest test concentration for 2.5 minutes per test concentration. After continuous administration of all concentrations, the positive control 3 μM cisapride was given. At least 2 cells were tested for each concentration (n≥2).
4.1 The compound mother liquor was diluted with DMSO, and 10 μL compound stock solution was added to 20 μL DMSO solution, which was continuously 3-fold diluted to 6 DMSO-concentrations.
4.2 4 μL of test compounds in 6 DMSO-concentrations were added to 396 μL extracellular solution and were 100-fold diluted to 6 intermediate concentrations. Then, 80 μL of test compounds in 6 intermediate concentrations were added to 320 μL extracellular solution and were 5-fold diluted to the final concentration to be tested.
4.3 The highest test concentration was 40.00 μM, and six test concentrations were 40.00, 13.33, 4.44, 1.48, 0.49, 0.16 μM, respectively.
4.5 Entire dilution process for test compound preparation was performed by Bravo instrument.
The experimental data were analyzed by GraphPad Prism 5.0 software.

[5] = In vivo pharmacokinetics assay in mice via IV and PO; set-up: species or system ICR mice; conditions: IV 1.0 mg/kg
Description: Pharmacokinetics assay for test compounds was performed in mice via IV and PO.
Test compound solution was prepared on the day of administration.
Solvent: IV+PO: 5% DMSO+10% Soultol+85% H2O or saline
Species: ICR mice; SPF level.
Source: Beijing Vital River Laboratory Animal Technology Co., Ltd.
Animal selection: Males. No random grouping
Weighed before dosing, calculated dosage according to body weight. For Groups 1-3, the drug was administered intravenously or intragastrically. For Group 4, the drug administered intragastrically.
For Groups 1-3, at 0.083 h, 0.25 h, 0.5 h, 1 h, 2 h, 4 h, 6 h, 8 h, 24 h, after administration. For Group 4, at 2 h and 4 h after administration.
Blood was collected through the cheeks. For each sample, about 0.05 mL of blood was collected and was added heparin sodium or EDTA-2K as anticoagulant, and was placed on wet ice.
The blood samples were collected and placed on ice and was centrifuged within 1 hour (centrifugation: 6000 g, 3 minutes, 2-8° C.) to separate plasma. Plasma samples were stored in a −80° C. refrigerator prior to analysis.
The pharmacokinetic parameters were calculated using Phoenix WinNonlin8.2.0 based on the blood concentration data at different time points, and AUC0-t, AUC0-∞, MRT0-∞, Cmax, Tmax, and T1/2 and mean values and standard deviations thereof were provided.

[6] = human, microsomes
[7] = Liver microsome metabolic stability (LMS) assay, mouse; conditions: mouse liver microsome 0.5 mg protein/mL, 1 μM, NADPH
[8] = Homo sapiens, HCT-116, 6 days treatment

PRMT5/MEP50, sequence (O14744 whole entry): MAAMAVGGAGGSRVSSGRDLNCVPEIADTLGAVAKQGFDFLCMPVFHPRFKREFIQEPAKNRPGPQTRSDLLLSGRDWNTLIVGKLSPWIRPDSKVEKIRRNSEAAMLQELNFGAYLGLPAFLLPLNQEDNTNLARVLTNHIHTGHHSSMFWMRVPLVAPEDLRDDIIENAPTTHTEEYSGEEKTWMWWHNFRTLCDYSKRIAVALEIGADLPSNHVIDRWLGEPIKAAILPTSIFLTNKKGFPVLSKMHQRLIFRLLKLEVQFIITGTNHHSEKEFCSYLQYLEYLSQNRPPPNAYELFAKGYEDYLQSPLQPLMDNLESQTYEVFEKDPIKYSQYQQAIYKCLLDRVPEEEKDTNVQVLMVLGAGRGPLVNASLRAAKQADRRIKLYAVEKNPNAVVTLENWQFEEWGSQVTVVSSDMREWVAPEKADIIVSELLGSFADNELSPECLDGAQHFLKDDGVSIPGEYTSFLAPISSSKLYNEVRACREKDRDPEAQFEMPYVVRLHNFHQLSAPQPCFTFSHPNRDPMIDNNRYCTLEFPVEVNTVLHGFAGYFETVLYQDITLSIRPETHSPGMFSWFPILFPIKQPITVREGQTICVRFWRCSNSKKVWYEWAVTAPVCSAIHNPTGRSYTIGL
PRMT5/MEP50, sequence (Q9BQA1 whole entry partner): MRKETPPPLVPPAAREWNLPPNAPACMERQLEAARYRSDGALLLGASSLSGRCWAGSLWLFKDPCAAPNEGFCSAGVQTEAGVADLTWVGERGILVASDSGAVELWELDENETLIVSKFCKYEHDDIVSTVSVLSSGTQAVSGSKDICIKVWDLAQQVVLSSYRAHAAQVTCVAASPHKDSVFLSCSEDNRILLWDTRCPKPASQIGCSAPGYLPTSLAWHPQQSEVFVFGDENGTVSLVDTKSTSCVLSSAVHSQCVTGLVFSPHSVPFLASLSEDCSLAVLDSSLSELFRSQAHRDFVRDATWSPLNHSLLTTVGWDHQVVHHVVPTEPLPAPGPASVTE

Compound	IC50 [1]	IC50 [2, 8]	IC50 [3, 8]	also measured
[2H]C([2H])([2H])N(C(=O)c1cc2c(cn1)nc(N)c1cncn12)C1COc2c1ccc(C(F)(F)F)c2F (centres unmarked) [Compound 34]	70 nM	14000 nM	364 nM	
CN(C(=O)c1cc2c(cn1)nc(N)c1cncn12)[C@@H]1CC(F)(F)c2cc(C(F)(F)F)ccc21 [Compound 26]	34 nM			IC50 ([2]; 6 days treatment): 6590 nM; IC50 ([3]; 6 days treatment): 64 nM; IC50 [4]: 13600 nM; Cl [5]: 10.5 mL/min/kg; T1/2 of LMS, H [6]: 2.32 h; T1/2 of LMS, M [7]: 1.98 h
C[C@H]1CC[C@H](c2ccc3c(c2)CCC(=O)N3)N(C(=O)c2ccc3nc(N)c4cncn4c3c2)C1 [Compound 4]	28 nM	105 nM	12 nM	
[2H]C([2H])([2H])N(C(=O)c1cc2c(cn1)nc(N)c1cncn12)C1COc2cc(C(F)(F)F)c(F)cc21 (centres unmarked) [Compound 35]	87 nM	3210 nM	70 nM	
C[C@H](c1ncccn1)N(Cc1ccc(C(F)(F)F)cn1)C(=O)c1ccc2nc(N)c3cncn3c2c1 [Compound 3]	24 nM	16000 nM	156 nM	
CN(C(=O)c1cc2c(cn1)nc(N)c1cncn12)C1COc2cc(C(F)(F)F)cnc21 (centres unmarked) [Compound 31]	96 nM	9580 nM	1500 nM	
CN(C(=O)c1ccc2nc(N)c3cncn3c2c1)C1COc2cc(C(F)(F)F)ccc21 (centres unmarked) [Compound 16]	231 nM			
CN(C(=O)c1cc2c(cn1)nc(N)c1cncn12)C1COc2cc(C(F)(F)F)ncc21 (centres unmarked) [Compound 33]	51 nM	18000 nM	980 nM	
Cn1ncc(-c2ccc3c(c2)nc(N)c2cncn23)c1-c1c(F)c(Cl)cc(OC2CC2)c1C#N [Compound 2]	45 nM	5720 nM	158 nM	
CN(C(=O)c1ccc2nc(N)c3cncn3c2c1)C1COc2cc(C(F)(F)F)ccc21 (centres unmarked) [Compound 11]	51 nM	7680 nM	64 nM	
CN(C(=O)c1ccc2nc(N)c3cncn3c2c1)C1COc2cc(C(F)(F)F)cnc21 (centres unmarked) [Compound 30]	89 nM	> 50000 nM	4020 nM	
CN(C(=O)c1cc2c(cn1)nc(N)c1cncn12)C1COc2cc(C(F)(F)F)ccc21 (centres unmarked) [Compound 22]	1150 nM			
C[C@H](c1ncccn1)N(Cc1ccc(C(F)(F)F)cn1)C(=O)c1cc2c(cn1)nc(N)c1cncn12 [Compound 10]	54 nM	495 nM	33 nM	
CN(C(=O)c1cc2c(cn1)nc(N)c1cncn12)C1CC(F)(F)c2cc(C(F)(F)F)ccc21 (centres unmarked) [Compound 27]	1690 nM			
CN(C(=O)c1ccc2nc(N)c3cncn3c2c1)C1COc2nc(C(F)(F)F)ccc21 (centres unmarked) [Compound 28]	37 nM	> 50000 nM	483 nM	
CN(C(=O)c1cc2c(cn1)nc(N)c1cncn12)C1CC(F)(F)c2cc(C(F)(F)F)ccc21 (centres unmarked) [Compound 25]	167 nM			
CN(C(=O)c1cc2c(cn1)nc(N)c1cncn12)C1COc2cc(C(F)(F)F)ccc21 (centres unmarked) [Compound 20]	455 nM			
CN(C(=O)c1ccc2nc(N)c3cncn3c2c1)C1COc2cc(C(F)(F)F)ncc21 (centres unmarked) [Compound 32]	25 nM	8090 nM	286 nM	
C[C@H](c1ncccn1)N(Cc1ccc(C(F)(F)F)cn1)C(=O)c1ccc2nc(N)n3cncc3c2c1 [Compound 5]	26 nM	1580 nM	138 nM	
[2H]C([2H])([2H])N(C(=O)c1cc2c(cn1)nc(N)c1cncn12)C1COc2cc(C(F)(F)F)cc(F)c21 (centres unmarked) [Compound 36]	53 nM	9620 nM	110 nM	
[2H]C([2H])([2H])N(C(=O)c1ccc2nc(N)c3cncn3c2c1)C1COc2cc(OC(F)F)ccc21 (centres unmarked) [Compound 37]	29 nM	13800 nM	234 nM	
CN(C(=O)c1cnc2nc(N)c3cncn3c2c1)[C@@H]1COc2cc(C(F)(F)F)ccc21 [Compound 13]	40 nM	4570 nM	181 nM	
CN(C(=O)c1ccc2nc(N)c3cncn3c2c1)C1COc2cc(C(F)(F)F)ccc21 (centres unmarked) [Compound 15]	16 nM			IC50 ([2]; 6 days treatment): 5340 nM; IC50 ([3]; 6 days treatment): 37 nM; IC50 [4]: 5580 nM
CN(C(=O)c1ccc2nc(N)c3cncn3c2c1)C1COCc2cc(C(F)(F)F)ccc21 (centres unmarked) [Compound 23]	31 nM	5350 nM	40 nM	
CN(C(=O)c1ccc2nc(N)c3cncn3c2c1)C1COc2cc(C(F)(F)F)ccc21 (centres unmarked) [Compound 18]	420 nM			
CN(C(=O)c1cc2c(cn1)nc(N)c1cncn12)C1COc2nc(C(F)(F)F)ccc21 (centres unmarked) [Compound 29]	37 nM	21900 nM	377 nM	
Cn1ncc(-c2ccc3c(c2)nc(N)c2cncn23)c1-c1c(F)cc2ccccc2c1C#N [Compound 1]	45 nM	4360 nM	73 nM	
C[C@H](c1ncccn1)N(Cc1ccc(C(F)(F)F)cn1)C(=O)c1cc2c(cc1F)nc(N)c1cncn12 [Compound 6]	36 nM	230 nM	17 nM	
